According to PubChem BioAssay (NCI):
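Dose response: 5 concentrations. Exposure: 48 h. Format: 96-well plates. Endpoint: linear interpolation; highest concentration if not reached. TGI: concentration producing complete growth inhibition.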

Experiments:
Experiment in all cases: NCI tumour cell line growth inhibition, 48 h
786-0 renal = system: 786-0 renal
A549 NSCLC = system: A549 NSCLC
BT-549 breast = system: BT-549 breast
CCRF-CEM leukemia = system: CCRF-CEM leukemia
COLO 205 colon = system: COLO 205 colon
EKVX NSCLC = system: EKVX NSCLC
HCC-2998 colon = system: HCC-2998 colon
HCT-116 colon = system: HCT-116 colon
HCT-15 colon = system: HCT-15 colon
HL-60(TB) leukemia = system: HL-60(TB) leukemia
HOP-62 NSCLC = system: HOP-62 NSCLC
HOP-92 NSCLC = system: HOP-92 NSCLC
HS 578T breast = system: HS 578T breast
HT29 colon = system: HT29 colon
IGROV1 ovarian = system: IGROV1 ovarian
K-562 leukemia = system: K-562 leukemia
KM12 colon = system: KM12 colon
M14 melanoma = system: M14 melanoma
MALME-3M melanoma = system: MALME-3M melanoma
MCF7 breast = system: MCF7 breast
MDA-MB-231 breast = system: MDA-MB-231 breast
MOLT-4 leukemia = system: MOLT-4 leukemia
NCI-H226 lung = system: NCI-H226 lung
NCI-H23 lung = system: NCI-H23 lung
OVCAR-8 ovarian = system: OVCAR-8 ovarian
PC-3 prostate = system: PC-3 prostate
RPMI-8226 leukemia = system: RPMI-8226 leukemia
RXF 393 renal = system: RXF 393 renal
SK-MEL-2 melanoma = system: SK-MEL-2 melanoma
SK-MEL-28 melanoma = system: SK-MEL-28 melanoma
SK-MEL-5 melanoma = system: SK-MEL-5 melanoma
SN12C renal = system: SN12C renal
SNB-19 CNS = system: SNB-19 CNS
SNB-75 CNS = system: SNB-75 CNS
SR leukemia = system: SR leukemia
SW-620 colon = system: SW-620 colon
TK-10 renal = system: TK-10 renal
UACC-257 melanoma = system: UACC-257 melanoma
UACC-62 melanoma = system: UACC-62 melanoma
UO-31 renal = system: UO-31 renal

What does the source list for CCOC(=O)c1ccc(N=C2S/C(=C\C(=S)Nc3ccccc3)N(c3ccccc3)C2=Nc2ccc(C(=O)OCC)cc2)cc1?
TGI (786-0 renal): > 100 µM; TGI (A549 NSCLC): > 100 µM; TGI (BT-549 breast): > 100 µM; TGI (CCRF-CEM leukemia): > 100 µM; TGI (COLO 205 colon): > 100 µM; TGI (EKVX NSCLC): > 100 µM; TGI (HCC-2998 colon): > 100 µM; TGI (HCT-116 colon): > 100 µM; TGI (HCT-15 colon): > 100 µM; TGI (HL-60(TB) leukemia): > 100 µM; TGI (HOP-62 NSCLC): > 100 µM; TGI (HOP-92 NSCLC): > 100 µM; TGI (HS 578T breast): > 100 µM; TGI (HT29 colon): > 100 µM; TGI (IGROV1 ovarian): > 100 µM; TGI (K-562 leukemia): > 100 µM; TGI (KM12 colon): > 100 µM; TGI (M14 melanoma): > 100 µM; TGI (MALME-3M melanoma): 82.6 µM; TGI (MCF7 breast): > 100 µM; TGI (MDA-MB-231 breast): > 100 µM; TGI (MOLT-4 leukemia): > 100 µM; TGI (NCI-H226 lung): > 100 µM; TGI (NCI-H23 lung): > 100 µM; TGI (OVCAR-8 ovarian): > 100 µM; TGI (PC-3 prostate): > 100 µM; TGI (RPMI-8226 leukemia): > 100 µM; TGI (RXF 393 renal): > 100 µM; TGI (SK-MEL-2 melanoma): > 100 µM; TGI (SK-MEL-28 melanoma): > 100 µM; TGI (SK-MEL-5 melanoma): > 100 µM; TGI (SN12C renal): > 100 µM; TGI (SNB-19 CNS): > 100 µM; TGI (SNB-75 CNS): > 100 µM; TGI (SR leukemia): > 100 µM; TGI (SW-620 colon): > 100 µM; TGI (TK-10 renal): > 100 µM; TGI (UACC-257 melanoma): > 100 µM; TGI (UACC-62 melanoma): > 100 µM; TGI (UO-31 renal): > 100 µM
